The values below come from patent US11285144B2, “Use of CDK8 inhibitors to treat diseases of inflammation and autoimmunity” (THE BROAD INSTITUTE, INC., priority 2016, dated 2022).

One data set has as its system BMDMs. The data set is described as follows: TF-Seq pathway reporter assay in BMDMs. It counts as cell-based, mouse. The method, then: To identify CDK8-responsive signaling pathways, an integrative genomics approach termed transcription factor sequencing (TF-Seq) was applied, in which consensus transcription factor binding sites drive expression of 58 reporter constructs bearing unique sequence tags (O'Connell et al., Cell Syst 2:323-34, 2016).
Given that c-Jun's ability to activate transcription is tightly regulated by phosphorylation, it was determined whether CDK8 inhibition affects c-Jun phosphorylation in activated BMDCs.
(In general: Reporter assays use an easily measured gene product as a stand-in for the process of interest.)

Data set [1] concerns the target T1, Cyclin C/CDK8 (Homo sapiens, UniProt P49336). The data set is described as follows: Binding to Cyclin C/CDK8 complex. An excerpt: Given that the pyridine core of BRD6989 is a common kinase-binding motif (Xing et al., J Comput Aided Mol Des 28:13-23, 2014), its activity against 414 kinases was profiled using a series of binding and activity assays. […] Binding of BRD6989 to CDK8, and its paralog CDK19, was confirmed using an orthogonal kinase-profiling format.

Data set [2] concerns the target recombinant Cyclin C/CDK19 (Homo sapiens, UniProt Q9BWU1). The data set is described as follows: Kinase activity of recombinant Cyclin C/CDK19. Particulars: recombinant complex. It counts as biochemical. An excerpt:
(§1) Together, these kinase profiling, binding assay, enzyme inhibition and cell-based data identify the Mediator-associated kinases CDK8, and to a lesser degree CDK19, as molecular targets of BRD6989.

The test system of data set [3] is Zymosan A-stimulated BMDCs. The data set can be described thus: Viability of zymosan A-stimulated BMDCs. It counts as cell-based, mouse. From the text: The pyridinyl tetrahydroquinoline BRD6989 (10) emerged as a prioritized hit in the screen (FIG. 2a and Table 2). […] Thus, BRD6989 enhances IL-10 production in activated human and murine macrophages and dendritic cells by a mechanism that appears most pronounced following stimulation of toll-like receptors-7 (TLR7) and TLR8 by R848.

Data set [4] has as its system Cyclin B/CDK1, Cyclin A/CDK2, p35/CDK5, Cyclin H/CDK7, Cyclin T/CDK9. The data set can be described thus: Activity of other CDKs. Particulars: CDKs involved in cell cycle regulation. It counts as biochemical.
Excerpt: (a) Binding of the indicated concentrations of BRD6989 to CDK8/Cyclin C complexes (each point corresponds to mean±S.D.; n=3 biological replicates from 1 independent experiment). (b-f) Effect of the indicated concentrations of BRD6989 on the activity of (b) Cyclin B/CDK1, (c) Cyclin A/CDK2, (d) p35/CDK5, (e) Cyclin H/CDK7, and (f) Cyclin T/CDK9 (each point corresponds to mean±S.D.; n=3 biological replicates from 1 independent experiment).
as §1

Another data set has as its system R848-stimulated BMDCs. The data set can be described thus: IL-10 mRNA levels in BMDCs following R848 stimulation. The format is cell-based, mouse. Particulars: pre-treatment, then R848 stimulation. The method, then:
FIG. 5—Cellular activities of the IL-10 hit BRD6989. […] (d) Effect of BRD6989 on IL-10 production in human DCs stimulated with R848 (each point corresponds to mean±S.D.; n=3 biological replicates from 1 independent experiment using cells derived from 1 donor). (e) Chemical structure of the pan-SIK inhibitor HG-9-91-01. (f) Effect of pre-treating BMDCs with HG-9-91-01 (0.5 μM) or BRD6989 (5 μM) on IL-10 mRNA levels following stimulation with R848 (each point corresponds to mean±S.D.; n=4 biological replicates from 1 independent experiment; *, P<0.05; ***, P<0.001 using unpaired, two-tailed Student's t test). Data from all panels is representative of at least 2 independent experiments.
Based on its ability to selectively potentiate IL-10 production by a mechanism that appears temporally distinct from CREB activation, BRD6989 was prioritized for MOA studies.

Data set [5] deals with T1, Cyclin C/CDK8. The data set can be described thus: Kinase activity of recombinant Cyclin C/CDK8. Particulars: recombinant complex. The format is biochemical.
Excerpt: as §1

A word on the IC50: it is the concentration at which inhibition is half-maximal.

Entries after “also recorded” stand apart in the source; their conditions may differ.

T1 sequence (P49336 whole entry, species assumed): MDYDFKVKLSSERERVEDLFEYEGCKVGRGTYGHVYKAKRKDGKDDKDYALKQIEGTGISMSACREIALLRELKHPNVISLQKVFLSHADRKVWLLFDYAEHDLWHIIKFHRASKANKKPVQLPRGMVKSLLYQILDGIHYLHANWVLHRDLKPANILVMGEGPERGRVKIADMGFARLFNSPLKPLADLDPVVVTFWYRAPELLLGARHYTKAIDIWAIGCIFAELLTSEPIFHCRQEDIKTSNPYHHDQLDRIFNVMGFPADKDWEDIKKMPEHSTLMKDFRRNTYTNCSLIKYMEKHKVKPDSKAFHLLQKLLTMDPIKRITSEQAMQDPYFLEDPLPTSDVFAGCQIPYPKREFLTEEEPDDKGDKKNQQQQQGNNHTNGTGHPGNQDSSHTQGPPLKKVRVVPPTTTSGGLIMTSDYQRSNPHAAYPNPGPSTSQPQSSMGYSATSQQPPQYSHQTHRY
T1 sequence (P24863 whole entry partner, species assumed): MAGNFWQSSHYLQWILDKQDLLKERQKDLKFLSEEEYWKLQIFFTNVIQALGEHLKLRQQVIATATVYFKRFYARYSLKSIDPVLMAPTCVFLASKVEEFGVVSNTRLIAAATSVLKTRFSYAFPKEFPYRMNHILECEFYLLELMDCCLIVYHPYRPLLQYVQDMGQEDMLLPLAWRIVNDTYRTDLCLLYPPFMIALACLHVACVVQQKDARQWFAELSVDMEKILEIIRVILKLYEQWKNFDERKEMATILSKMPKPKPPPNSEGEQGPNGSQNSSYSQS
Sequence of recombinant Cyclin C/CDK19 (Q9BWU1 whole entry, species assumed): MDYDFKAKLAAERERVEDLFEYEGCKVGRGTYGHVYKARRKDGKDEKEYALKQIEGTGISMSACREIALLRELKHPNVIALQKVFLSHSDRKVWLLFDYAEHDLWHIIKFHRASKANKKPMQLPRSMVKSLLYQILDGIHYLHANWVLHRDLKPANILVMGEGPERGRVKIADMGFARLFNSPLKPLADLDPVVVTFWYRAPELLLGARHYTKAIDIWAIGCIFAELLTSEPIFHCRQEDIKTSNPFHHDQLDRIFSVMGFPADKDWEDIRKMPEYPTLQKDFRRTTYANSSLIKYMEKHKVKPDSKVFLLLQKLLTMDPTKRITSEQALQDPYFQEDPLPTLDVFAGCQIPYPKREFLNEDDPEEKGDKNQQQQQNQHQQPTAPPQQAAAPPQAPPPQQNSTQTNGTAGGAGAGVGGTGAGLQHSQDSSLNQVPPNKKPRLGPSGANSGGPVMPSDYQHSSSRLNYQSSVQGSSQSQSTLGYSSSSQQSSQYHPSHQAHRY
Sequence of recombinant Cyclin C/CDK19 (P24863 whole entry partner, species assumed): as the sequence (P24863 whole entry partner, species assumed) above

Consider `CC1CCc2nc(N)c(C#N)c(-c3cccnc3)c2C1` (centres unmarked) [BRD6989], for which the “STAT1:STAT2 reporter activity” value in the data set with BMDMs (2 hours after stimulation of BMDMs) is “suppressed induction of STAT1:STAT2 activity”. In the data set with BMDMs (all stimuli tested), the NF-κB activation result is given as “suppressed NF-κB activation to a varying degree”. Besides, the IC50 on Cyclin C/CDK8 [1] was around 200 nM; in data set [2], above 30000 nM; on Cyclin C/CDK8 [5] it was around 500 nM. In addition, the cell viability result in data set [3] is “only modestly reducing cell viability; also recorded: does not significantly reduce the viability”. Also, in data set [4], the “inhibition of several other CDKs” value is recorded as “not the activity of several CDKs involved in cell cycle regulation; also recorded: does not inhibit”. Moreover, in the data set with R848-stimulated BMDCs, the “IL-10 mRNA levels” value is “sustained increase beginning at 4 hours and extending to 24 hours”.
